Data from PubChem BioAssay (NCI).
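GI50: concentration for 50% inhibition of growth. TGI is the concentration that stops growth completely.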

test system: CAKI-1 renal; assay: growth of human tumour cells (NCI), 384-well format

Compound	GI50	TGI
CN(C)C(=O)c1cc2cnc(Nc3ccc(N4CCNCC4)cn3)nc2n1C1CCCC1	8.2 µM	63.6 µM
COc1cc2nccc(Oc3ccc(NC(=O)C4(C(=O)Nc5ccc(F)cc5)CC4)cc3)c2cc1OC	2.62 µM	9.96 µM
O=C(Nc1cccc(C(F)(F)F)c1)Nc1cc(S(=O)(=O)NC2CC2)ccc1-c1ccsc1	3.59 µM	15.2 µM

test system: KM12 colon; assay: as above

Compound	GI50	TGI
CN(C)C(=O)c1cc2cnc(Nc3ccc(N4CCNCC4)cn3)nc2n1C1CCCC1	2.51 µM	35.5 µM
COc1cc2nccc(Oc3ccc(NC(=O)C4(C(=O)Nc5ccc(F)cc5)CC4)cc3)c2cc1OC	0.0614 µM	14.3 µM
O=C(Nc1cccc(C(F)(F)F)c1)Nc1cc(S(=O)(=O)NC2CC2)ccc1-c1ccsc1	4.02 µM	12.7 µM

test system: MALME-3M melanoma; assay: as above

Compound	GI50	TGI
CN(C)C(=O)c1cc2cnc(Nc3ccc(N4CCNCC4)cn3)nc2n1C1CCCC1	11.1 µM	31.2 µM
COc1cc2nccc(Oc3ccc(NC(=O)C4(C(=O)Nc5ccc(F)cc5)CC4)cc3)c2cc1OC	2 µM	5.44 µM
O=C(Nc1cccc(C(F)(F)F)c1)Nc1cc(S(=O)(=O)NC2CC2)ccc1-c1ccsc1	6.91 µM	18.9 µM

test system: MCF7 breast; assay: as above

Compound	GI50	TGI
CN(C)C(=O)c1cc2cnc(Nc3ccc(N4CCNCC4)cn3)nc2n1C1CCCC1	23.3 µM	40.7 µM
COc1cc2nccc(Oc3ccc(NC(=O)C4(C(=O)Nc5ccc(F)cc5)CC4)cc3)c2cc1OC	3.55 µM	11.1 µM
O=C(Nc1cccc(C(F)(F)F)c1)Nc1cc(S(=O)(=O)NC2CC2)ccc1-c1ccsc1	3.68 µM	12.4 µM

test system: MDA-MB-435 melanoma; assay: as above

Compound	GI50	TGI
CN(C)C(=O)c1cc2cnc(Nc3ccc(N4CCNCC4)cn3)nc2n1C1CCCC1	52.2 µM	> 100 µM
COc1cc2nccc(Oc3ccc(NC(=O)C4(C(=O)Nc5ccc(F)cc5)CC4)cc3)c2cc1OC	3.94 µM	12 µM
O=C(Nc1cccc(C(F)(F)F)c1)Nc1cc(S(=O)(=O)NC2CC2)ccc1-c1ccsc1	6.53 µM	18.9 µM

test system: MOLT-4 leukemia; assay: as above

Compound	GI50	TGI
CN(C)C(=O)c1cc2cnc(Nc3ccc(N4CCNCC4)cn3)nc2n1C1CCCC1	0.73 µM	6.31 µM
COc1cc2nccc(Oc3ccc(NC(=O)C4(C(=O)Nc5ccc(F)cc5)CC4)cc3)c2cc1OC	1.55 µM	3.62 µM
O=C(Nc1cccc(C(F)(F)F)c1)Nc1cc(S(=O)(=O)NC2CC2)ccc1-c1ccsc1	1.78 µM	3.35 µM

test system: NCI-H23 lung; assay: as above

Compound	GI50	TGI
CN(C)C(=O)c1cc2cnc(Nc3ccc(N4CCNCC4)cn3)nc2n1C1CCCC1	25.3 µM	61.1 µM
COc1cc2nccc(Oc3ccc(NC(=O)C4(C(=O)Nc5ccc(F)cc5)CC4)cc3)c2cc1OC	1.34 µM	6.54 µM
O=C(Nc1cccc(C(F)(F)F)c1)Nc1cc(S(=O)(=O)NC2CC2)ccc1-c1ccsc1	2.83 µM	8.74 µM

test system: NCI-H522 lung; assay: as above

Compound	GI50	TGI
CN(C)C(=O)c1cc2cnc(Nc3ccc(N4CCNCC4)cn3)nc2n1C1CCCC1	29.5 µM	82.2 µM
COc1cc2nccc(Oc3ccc(NC(=O)C4(C(=O)Nc5ccc(F)cc5)CC4)cc3)c2cc1OC	2.79 µM	7.77 µM
O=C(Nc1cccc(C(F)(F)F)c1)Nc1cc(S(=O)(=O)NC2CC2)ccc1-c1ccsc1	2.69 µM	8.11 µM

test system: OVCAR-4 ovarian; assay: as above

Compound	GI50	TGI
CN(C)C(=O)c1cc2cnc(Nc3ccc(N4CCNCC4)cn3)nc2n1C1CCCC1	30.4 µM	> 94 µM
COc1cc2nccc(Oc3ccc(NC(=O)C4(C(=O)Nc5ccc(F)cc5)CC4)cc3)c2cc1OC	4.01 µM	13.1 µM
O=C(Nc1cccc(C(F)(F)F)c1)Nc1cc(S(=O)(=O)NC2CC2)ccc1-c1ccsc1	5.19 µM	17 µM

test system: PC-3 prostate; assay: as above

Compound	GI50	TGI
CN(C)C(=O)c1cc2cnc(Nc3ccc(N4CCNCC4)cn3)nc2n1C1CCCC1	17.8 µM	> 80.5 µM
COc1cc2nccc(Oc3ccc(NC(=O)C4(C(=O)Nc5ccc(F)cc5)CC4)cc3)c2cc1OC	3.8 µM	15.4 µM
O=C(Nc1cccc(C(F)(F)F)c1)Nc1cc(S(=O)(=O)NC2CC2)ccc1-c1ccsc1	3.92 µM	13.3 µM

test system: SK-MEL-2 melanoma; assay: as above

Compound	GI50	TGI
CN(C)C(=O)c1cc2cnc(Nc3ccc(N4CCNCC4)cn3)nc2n1C1CCCC1	16.8 µM	35.7 µM
COc1cc2nccc(Oc3ccc(NC(=O)C4(C(=O)Nc5ccc(F)cc5)CC4)cc3)c2cc1OC	3.07 µM	7.42 µM
O=C(Nc1cccc(C(F)(F)F)c1)Nc1cc(S(=O)(=O)NC2CC2)ccc1-c1ccsc1	2.72 µM	6.07 µM

test system: SK-MEL-28 melanoma; assay: as above

Compound	GI50	TGI
CN(C)C(=O)c1cc2cnc(Nc3ccc(N4CCNCC4)cn3)nc2n1C1CCCC1	37.5 µM	> 66 µM
COc1cc2nccc(Oc3ccc(NC(=O)C4(C(=O)Nc5ccc(F)cc5)CC4)cc3)c2cc1OC	3.01 µM	11.3 µM
O=C(Nc1cccc(C(F)(F)F)c1)Nc1cc(S(=O)(=O)NC2CC2)ccc1-c1ccsc1	10.9 µM	22.9 µM

test system: SW-620 colon; assay: as above

Compound	GI50	TGI
CN(C)C(=O)c1cc2cnc(Nc3ccc(N4CCNCC4)cn3)nc2n1C1CCCC1	9.02 µM	> 65.6 µM
COc1cc2nccc(Oc3ccc(NC(=O)C4(C(=O)Nc5ccc(F)cc5)CC4)cc3)c2cc1OC	2.13 µM	5.57 µM
O=C(Nc1cccc(C(F)(F)F)c1)Nc1cc(S(=O)(=O)NC2CC2)ccc1-c1ccsc1	3.87 µM	13.9 µM
